Data on two substances can be found in US9371527B2, “Compositions and methods related to protein displacement therapy for myotonic distrophy” (University of Rochester, priority 2006, dated 2016).

The test system of data set [1] is ClC-1 exon 7a. The data set is described as follows: RT-PCR of ClC-1 exon 7a splicing after ClC-1 antisense morpholino, HSA^LR mice. Format: in vivo. To be noted: TA muscle; for comparison of exon 7a skipping between antisense morpholinos: 3 weeks, 20 μg total. Here is the method: (§1) FIGS. 21A, 21B, 21C, and 21D show the effects of antisense morpholino targeting the 3′ splice junction of ClC-1 exon 7a on splicing and myotonia in HSA^LR transgenic mice. Antisense morpholino targeting the 3′ splice junction of ClC-1 exon 7a was injected into tibialis anterior muscle of HSA^LR mice under general anesthesia (sequence 5′-[…]-3′ (SEQ ID NO: 4)). The contralateral muscle was injected with morpholino having the inverted sequence (5′-[…]-3′(SEQ ID NO: 5)). Uptake into muscle fibers was enhanced by in vivo electroporation. The determination of which side received the antisense morpholino was randomized. 21 days later, myotonia was evaluated by electromyography and muscle was harvested for RT-PCR analysis of ClC-1 alternative splicing. Electromyography was blinded to the randomization.
(§2) HSA^LR (Mankodi, A., et al. (2000) Science 289:1769-1773) or Mbnl1^ΔE3/ΔE3 mice (Kanadia, R. N., et al. (2003) Science 302:1978-1980) were anesthetized by intraperitoneal injection of 100 mg/kg ketamine, 10 mg/kg xylazine, and 3 mg/kg acepromazine. TA muscle was pretreated by intramuscular injection of bovine hyaluronidase (15 μl, 0.4 U/μl) (Sigma) (McMahon, J. M., et al. (2001) Gene Ther 8:1264-1270). Two hours later, 10 or 20 μg of morpholino in a total volume of 20 μl phosphate buffered saline (PBS) was injected using a 30-gauge needle. TA muscle was then electroporated using electrodes placed parallel to the long axis of the muscle. Electroporation parameters were 100 V/cm, 10 pulses at 1 Hz, and 20 ms duration per pulse. Antisense or control morpholino with inverted sequence was injected into TA muscles of opposite limbs. The determination of which TA received antisense morpholino was randomized, and investigators remained blinded to this assignment until EMG analyses were completed. Other analyses were performed without blinding. For experiments to determine the distribution of injected oligos, the antisense morpholino was labeled with carboxyfluorescein and cryosections of muscle (10 μM) were examined by fluorescence microscopy, with or without fixation in 4% paraformaldehyde. Some sections were co-labeled with TRITC-wheat germ agglutinin (Parsons, S. A., et al. (2003) Mol Cell Biol 23:4331-4343) (50 μg/ml in PBS; Sigma) and 4′,6-diamidino-2-phenylindole (DAPI) to highlight the surface membranes and nuclei of muscle fibers.
Mice were sacrificed three or eight weeks after morpholino injection. TA muscles were removed and frozen in liquid nitrogen. Total RNA was isolated with TriReagent (Molecular Research Center). cDNA synthesis was primed with oligo dT as described previously (Mankodi, A., et al. (2002) Mol Cell 10:35-44). Assays for alternative splicing of ClC-1 and Titin were described previously (Mankodi, A., et al. (2002) Mol Cell 10:35-44; Lin, X., et al. (2006) Hum Mol Genet 15:2087-2097). Primer sequences were
(§3) RT-PCR products (22 cycles) were separated on agarose gels, stained with SYBR green II, and scanned on a laser fluorimager (Molecular Dynamics). Band intensity was quantified using ImageQuant software. Total levels of ClC-1 mRNA were determined by quantitative real-time RT-PCR (Taqman, Applied Biosystems) relative to housekeeping gene RNA polymerase II transcription factor IIB.

Data set [2] concerns ClC-1 mRNA. The experiment in a line: Quantitative real time RT-PCR of ClC-1 mRNA level. Format: in vivo, HSA^LR mice. The settings on record: 3 weeks after treatment, relative to RNA polymerase II transcription factor IIB.
Excerpt: HSA^LR and WT mice have the same (FVB) inbred strain background. […] FIGS. 25D and 25E show the percentage of ClC-1 splice products that include exon 7a is shown at 3 (D) and 8 (E) weeks following morpholino injection. Mean±s.d.; n=3 per group; **P<0.001; *P=0.035 antisense- versus invert-treated controls; t-test. […] ClC-1 mRNA level is expressed in arbitrary units relative to housekeeping gene RNA polymerase II transcription factor IIB. Mean±s.d.; n=3 per group; *P=0.06 for antisense vs invert-treated control; t-test.
as §3
A general note: Real-time PCR tracks product formation cycle by cycle.

Data set [3] deals with Mbnl1^ΔE3/ΔE3 mice. The experiment in a line: Electromyography of myotonia, Mbnl1^ΔE3/ΔE3 mice. Format: in vivo. To be noted: TA muscle, 3 weeks. Here is the method: FIGS. 27A, 27B, 27C, 27D, and 27E show antisense morpholino represses exon 7a inclusion, restores ClC-1 protein expression, and rescues myotonia in Mbnl1^ΔE3/ΔE3 mice. […] Bar=20 μM. […] Mean±s.d.; n=3 per group; **P<0.0001 antisense- versus invert-treated control; ANOVA.
EMG was performed under general anesthesia as described previously (Kanadia, R. N., et al. (2003) Science 302:1978-1980). Images and video recordings of electromyographic myotonia in HSA^LR and Mbnl1^ΔE3/ΔE3 mice are shown in previous reports (Kanadia, R. N., et al. (2003) Science 302:1978-1980; Mankodi, A., et al. (2000) Science 289:1769-1773). A minimum of 15 needle insertions were performed for each muscle examined Myotonic discharges were graded on a 4 point scale: 0, no myotonia; 1, occasional myotonic discharge in <50% of needle insertions; 2, myotonic discharge in >50% of needle insertions; 3: myotonic discharge with nearly every insertion.

Data set [4] deals with HSA^LR mice. The data set is described as follows: Electromyography of myotonia after ClC-1 antisense morpholino, HSA^LR mice. Format: in vivo. To be noted: TA muscle. Here is the method:
as §1, with “21 days later, myotonia was evaluated by electromyography and muscle was harvested for RT-PCR analysis of ClC-1 alternative splicing.” left out
as §2
EMG was performed under general anesthesia as described previously (Kanadia, R. N., et al. (2003) Science 302:1978-1980). Images and video recordings of electromyographic myotonia in HSA^LR and Mbnl1^ΔE3/ΔE3 mice are shown in previous reports (Kanadia, R. N., et al. (2003) Science 302:1978-1980; Mankodi, A., et al. (2000) Science 289:1769-1773). […]

“Also recorded” adds a separate entry of the source.

“antisense 1: morpholino 5′-CCAGGCACGGTCTGCAACAGAGAAG-3′ targeting the 3′ splice site of ClC-1 exon 7a (all phosphorodiamidate morpholino (PMO))”: the “ClC-1 exon 7a inclusion” value is given as “significant reduction of exon 7a inclusion; also recorded: suppressed to wild type (WT) levels” in data set [1] (3 weeks (21 days) after single injection + electroporation, listed as antisense morpholino); “remained partially suppressed” in data set [1] (8 weeks after injection, 20 μg); “partial exclusion of exon 7a” in data set [1] (8 weeks after injection, 20 μg, listed as antisense morpholino). For the same substance, the “comparison of exon 7a skipping between antisense morpholinos” value in data set [1] is on record as “higher level of exon 7a skipping”; in data set [1] (listed as AON targeting the 3′ splice site), “more effective than targeting the 5′ splice site alone”. Also, the “fraction of splice products encoding functional ClC-1 channels (band 1)” value in data set [1] (21 days) is “increases the fraction of splice products encoding functional ClC-1 channels”. Moreover, in data set [2] (listed as antisense morpholino), the “level of ClC-1 mRNA” value is listed as “increased levels of ClC-1 mRNA”. Further, the “myotonia (EMG)” value in data set [3] (listed as antisense morpholino) is reported as “reduced the myotonia”; in data set [4] (3 weeks (21 days) after injection, listed as antisense morpholino), “marked reduction of myotonia; also recorded: markedly reduced or absent; also recorded: significantly reduced”; in data set [4] (8 weeks after injection, listed as antisense morpholino), “markedly reduced or absent; also recorded: significantly reduced”.
As to “control morpholino: control morpholino 5′-GAAGAGACAACGTCTGGCACGGACC-3′, the 5′-3′ invert of the 3′ splice site blocker (all phosphorodiamidate morpholino (PMO)) [reference compound]”, in data set [1] (3 weeks (21 days) after single injection + electroporation), the “ClC-1 exon 7a inclusion” value is “no effect on ClC-1 splicing; also recorded: not different from untreated HSA^LR muscle”. Moreover, the “level of ClC-1 mRNA” value in data set [2] is “not control morpholino with inverted sequence”. The figures for the “myotonia (EMG)” value in data set [3], in data set [4] (3 weeks (21 days) after injection) and in data set [4] (8 weeks after injection) were “not in muscle treated with invert control”, “not different from uninjected muscle” and “not different from uninjected muscle”, respectively.
